These results are taken from ChEMBL document CHEMBL4609985, “Superior inhibition of influenza virus hemagglutinin-mediated fusion by indole-substituted spirothiazolidinones” (Bioorg Med Chem, 2020).

Series [1] is described as follows: Cytotoxicity against MDCK cells assessed as reduction in cell viability after 4 days by MTS assay. The format is cell-based, Canis lupus familiaris. To be noted: dog.
In series [2] the test system is Influenza A virus H3N2. Nature of the series: Antiviral activity against Influenza A virus H3N2 A/HK/7/87 infected in MDCK cells assessed as reduction in virus induced cytopathic effect after 4 days by microscopy based method. The format is functional, organism-based. To be noted: A/HK/7/87, MDCK, 96 h.
Series [3] has as its system Influenza A virus H3N2. Kind of series: Antiviral activity against IInfluenza A virus H3N2 A/HK/7/87 infected in MDCK cells after 4 days by MTS assay. The format is functional, organism-based. To be noted: A/HK/7/87, MDCK, 96 h.
Series [4] is described as follows: Cytotoxicity against MDCK cells assessed as minimum cytotoxic concentration after 4 days by MTS assay. The format is cell-based, Canis lupus familiaris. To be noted: dog. On the technique in general: Formazan colour is commonly taken as a measure of viable cells.
A short description of series [5]: Inhibition of influenza H3N2 A/X-31 hemagglutinin 3 expressed in HeLa cells assessed as polykaryon formation preincubated for 15 mins and further incubated for 15 mins with acidic buffer containing compounds at pH 5.2 by giemsa staining based microscopic analysis. The format is cell-based, Influenza A virus (A/X-31(H3N2)). To be noted: Influenza A virus.
The nature of series [6]: Selectivity index, ratio of CC50 for MDCK cells to EC50 for antiviral activity against Influenza H3N2 A/HK/7/87 infected in MDCK cells after 4 days by MTS assay. The format is toxicity, cell-based. To be noted: dog, read-out: Ratio CC50/EC50.

The term CC50 denotes the concentration that lowers cell viability or growth by half. By EC50 is commonly meant the concentration giving half of the maximal effect. With `Cc1nc2sccn2c1C(=O)NN1C(=O)C(C)SC12CCC(C)CC2` (centres undefined), the CC50 at 96 h in series [1] was more than 100 µM. Also, the EC50 is 5 µM in the series on Influenza A virus H3N2 [2], 3.2 µM in the series with Influenza A virus H3N2 [3] and 1.1 µM in series [5]. In addition, the MCC at 96 h in series [4] was not below 100 µM. For the same compound, the selectivity ratio at 96 h in series [6] was more than 31.
As for `Cc1c(C(=O)NN2C(=O)C(C)SC23CCCCC3C)[nH]c2ccc(Cl)cc12` (centres undefined), in series [1], the CC50 at 96 h stood at 88 µM. For the same compound, the EC50 with Influenza A virus H3N2 [2] and in the series on Influenza A virus H3N2 [3] was more than 100 µM in each case. Besides, the MCC at 96 h in series [4] is not below 20 µM.
For the compound `Cc1c(C(=O)NN2C(=O)C(C)SC23CCC(c2ccccc2)CC3)[nH]c2ccc(Cl)cc12` (centres undefined), the CC50 at 96 h in series [1] worked out at 2.3 µM. In addition, the EC50 with Influenza A virus H3N2 [2] and in the series on Influenza A virus H3N2 [3] was more than 100 µM in each case. In addition, the MCC at 96 h in series [4] came to 1 µM.
Consider `Cc1c(C(=O)NN2C(=O)C(C)SC23CCCC3)[nH]c2ccc(Cl)cc12` (centres undefined), for which the CC50 at 96 h in series [1] was more than 100 µM. The EC50 in the series with Influenza A virus H3N2 [2] and in the series with Influenza A virus H3N2 [3] was more than 100 µM each time. Further, the MCC at 96 h in series [4] is more than 100 µM.
In the case of `Cc1c(C(=O)NN2C(=O)CSC23CCCCC3C)[nH]c2ccc(Cl)cc12` (centres undefined), the CC50 at 96 h in series [1] was more than 100 µM. Moreover, the EC50 in the series on Influenza A virus H3N2 [2] and in the series with Influenza A virus H3N2 [3] was more than 100 µM each time. Also, the MCC at 96 h in series [4] was not below 20 µM.
As for `Cc1c(C(=O)NN2C(=O)C(C)SC23CCC(C(C)(C)C)CC3)[nH]c2ccc(Cl)cc12` (centres undefined), the CC50 at 96 h in series [1] is 0.9 µM. Also, the EC50 in the series on Influenza A virus H3N2 [2] and with Influenza A virus H3N2 [3] was more than 100 µM throughout. Also, in series [4], the MCC at 96 h was not below 4 µM.
Take `Cc1c(C(=O)NN2C(=O)C(C)SC23CCC(C)CC3)[nH]c2ccc(Cl)cc12` (centres undefined): in series [1], the CC50 at 96 h was 2.8 µM. Besides, the values for the EC50 (in the series on Influenza A virus H3N2 [2]; in the series with Influenza A virus H3N2 [3]; in series [5]) were 0.063 µM, 0.045 µM and 2.1 µM, respectively. Moreover, the MCC at 96 h in series [4] worked out at 0.87 µM. Besides, in series [6], the selectivity ratio at 96 h worked out at 62.
For the compound `Cc1c(C(=O)NN2C(=O)CSC23CC(C)CC(C)(C)C3)[nH]c2ccc(Cl)cc12` (centres undefined), in series [1], the CC50 at 96 h is more than 100 µM. Also, the EC50 in the series with Influenza A virus H3N2 [2] and with Influenza A virus H3N2 [3] was more than 100 µM each time. Besides, in series [4], the MCC at 96 h was more than 100 µM.
In the case of `Cc1c(C(=O)NN2C(=O)C(C)SC23CC(C)CC(C)(C)C3)[nH]c2ccc(Cl)cc12` (centres undefined), the CC50 at 96 h in series [1] came out at 85 µM. In addition, the EC50 in the series with Influenza A virus H3N2 [2] and in the series on Influenza A virus H3N2 [3] was more than 100 µM each time. Besides, the MCC at 96 h in series [4] stood at 20 µM.
As for `Cc1c(C(=O)NN2C(=O)C(C)SC23CCCC(C)C3)[nH]c2ccc(Cl)cc12` (centres undefined), the CC50 at 96 h in series [1] worked out at 33 µM. In addition, the EC50 amounted to 0.031 µM with Influenza A virus H3N2 [2], 0.023 µM with Influenza A virus H3N2 [3] and 1.4 µM in series [5]. Moreover, the MCC at 96 h in series [4] was not below 4 µM. Also, the selectivity ratio at 96 h in series [6] was 1440.
For the compound `Cc1c(C(=O)NN2C(=O)CSC23CCCC(C)C3)[nH]c2ccc(Cl)cc12` (centres undefined), the CC50 at 96 h in series [1] was more than 100 µM. Moreover, the EC50 with Influenza A virus H3N2 [2] and in the series with Influenza A virus H3N2 [3] was more than 100 µM each time. In addition, the MCC at 96 h in series [4] was not below 100 µM.
With `CCCC1CCC2(CC1)SC(C)C(=O)N2NC(=O)c1[nH]c2ccc(Cl)cc2c1C` (centres undefined), the CC50 at 96 h in series [1] came to 1.9 µM. For the same compound, the EC50 with Influenza A virus H3N2 [2] and with Influenza A virus H3N2 [3] was more than 100 µM in each case. Further, the MCC at 96 h in series [4] turned out to be 0.8 µM.
For `Cc1c(C(=O)NN2C(=O)CSC23CCC(C(C)(C)C)CC3)[nH]c2ccc(Cl)cc12` (centres undefined), the CC50 at 96 h in series [1] is 2.1 µM. The EC50 in the series with Influenza A virus H3N2 [2] and with Influenza A virus H3N2 [3] was more than 100 µM each time. Also, the MCC at 96 h in series [4] is 0.8 µM.
Consider `Cc1c(C(=O)NN2C(=O)CSC23CCC(C)CC3)[nH]c2ccc(Cl)cc12` (centres undefined), for which the CC50 at 96 h in series [1] is more than 100 µM. Further, the EC50 with Influenza A virus H3N2 [2] and with Influenza A virus H3N2 [3] was more than 100 µM each time. In addition, the MCC at 96 h in series [4] was not below 100 µM.
On to `Cc1c(C(=O)NN2C(=O)CSC23CCCC3)[nH]c2ccc(Cl)cc12`, for which the CC50 at 96 h in series [1] is more than 100 µM. Moreover, the EC50 in the series on Influenza A virus H3N2 [2] and in the series with Influenza A virus H3N2 [3] was more than 100 µM throughout. In addition, the MCC at 96 h in series [4] is more than 100 µM.
For the compound `CCCC1CCC2(CC1)SCC(=O)N2NC(=O)c1[nH]c2ccc(Cl)cc2c1C` (centres undefined), in series [1], the CC50 at 96 h stood at 1.3 µM. For the same compound, the EC50 with Influenza A virus H3N2 [2] and in the series on Influenza A virus H3N2 [3] was more than 100 µM in each case. The MCC at 96 h in series [4] was 0.8 µM.
Regarding `Cc1c(C(=O)NN2C(=O)CSC23CCC(c2ccccc2)CC3)[nH]c2ccc(Cl)cc12` (centres undefined), the CC50 at 96 h in series [1] was determined as 2.4 µM. Besides, the EC50 in the series with Influenza A virus H3N2 [2] and with Influenza A virus H3N2 [3] was more than 100 µM in each case. Moreover, in series [4], the MCC at 96 h came out at 5 µM.
`CCC1CCC2(CC1)SC(C)C(=O)N2NC(=O)c1[nH]c2ccc(Cl)cc2c1C` (centres undefined): the CC50 at 96 h in series [1] is 1.5 µM. In addition, the EC50 with Influenza A virus H3N2 [2] was found to be 0.0012 µM; in the series on Influenza A virus H3N2 [3], 0.00077 µM; in series [5], 0.88 µM. The MCC at 96 h in series [4] came out at 3 µM. In addition, the selectivity ratio at 96 h in series [6] stood at 1950.
On to `CCC1CCC2(CC1)SCC(=O)N2NC(=O)c1[nH]c2ccc(Cl)cc2c1C` (centres undefined), for which the CC50 at 96 h in series [1] stood at 94 µM. For the same compound, the EC50 in the series on Influenza A virus H3N2 [2] and in the series with Influenza A virus H3N2 [3] was more than 100 µM in each case. Also, the MCC at 96 h in series [4] is not below 4 µM.
`Cc1c(C(=O)NN2C(=O)CSC23CCCCC3)[nH]c2ccc(Cl)cc12`: the CC50 at 96 h in series [1] is more than 100 µM. Moreover, the EC50 in the series with Influenza A virus H3N2 [2] and in the series on Influenza A virus H3N2 [3] was more than 100 µM in each case. In addition, in series [4], the MCC at 96 h is more than 100 µM.
As for `Cc1c(C(=O)NN2C(=O)C(C)SC23CCCCC3)[nH]c2ccc(Cl)cc12` (centres undefined), in series [1], the CC50 at 96 h is 5.8 µM. In addition, the EC50 in the series with Influenza A virus H3N2 [2] turned out to be 0.085 µM; in the series with Influenza A virus H3N2 [3], 0.063 µM; in series [5] it was 1.3 µM. Moreover, the MCC at 96 h in series [4] is not below 4 µM. The selectivity ratio at 96 h in series [6] stood at 92.
Regarding `NC12CC3CC(CC(C3)C1)C2` [AMANTADINE], the CC50 at 96 h in series [1] is more than 200 µM. Also, the EC50 in the series on Influenza A virus H3N2 [2] came to 3.8 µM; in the series on Influenza A virus H3N2 [3] it was 1.2 µM. In series [4], the MCC at 96 h was more than 200 µM.
With `CC(C)(C)c1cc(O)ccc1O` [E319], the EC50 in series [5] was determined as 9.9 µM.
For `NC(=O)c1ncn([C@@H]2O[C@H](CO)[C@@H](O)[C@H]2O)n1` [RIBAVIRIN], the CC50 at 96 h in series [1] is more than 100 µM. Moreover, the concentration for a half-maximal effect (EC50) in the series on Influenza A virus H3N2 [2] amounted to 8.4 µM; in the series with Influenza A virus H3N2 [3], 4.6 µM. Also, the MCC at 96 h in series [4] is not below 100 µM.
In the case of `CCOC(=O)c1c(CSc2ccccc2)n(C)c2cc(Br)c(O)c(CN(C)C)c12` [UMIFENOVIR], the EC50 in series [5] was determined as 40 µM.
